{
  "source": "ChEMBL document CHEMBL4342459",
  "about": "“The Race to Bash NASH: Emerging Targets and Drug Development in a Complex Liver Disease” (J Med Chem, 2020)",
  "key": {"[1]": {"target": "T1, Diacylglycerol O-acyltransferase 1 (Homo sapiens, UniProt O75907)", "T1 sequence (O75907 whole entry)": "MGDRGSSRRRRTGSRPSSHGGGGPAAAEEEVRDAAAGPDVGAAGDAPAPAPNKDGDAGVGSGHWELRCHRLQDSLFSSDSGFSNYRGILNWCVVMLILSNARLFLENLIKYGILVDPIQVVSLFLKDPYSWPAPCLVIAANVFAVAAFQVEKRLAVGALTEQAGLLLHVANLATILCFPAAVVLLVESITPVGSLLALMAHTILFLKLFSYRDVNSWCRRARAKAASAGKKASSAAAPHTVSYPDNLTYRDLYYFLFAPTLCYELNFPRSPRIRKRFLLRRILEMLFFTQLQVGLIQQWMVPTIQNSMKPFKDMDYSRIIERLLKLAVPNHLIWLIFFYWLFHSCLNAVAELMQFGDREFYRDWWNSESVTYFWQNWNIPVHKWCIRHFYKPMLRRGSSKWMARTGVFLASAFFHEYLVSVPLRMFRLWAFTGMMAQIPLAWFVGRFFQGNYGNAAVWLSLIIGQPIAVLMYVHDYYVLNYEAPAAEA", "experiment": "Inhibition of recombinant FLAG-tagged human DGAT1 expressed in SF9 cells after 1 hr by TopCount assay"}, "[2]": {"target": "T2, Diacylglycerol O-acyltransferase 2 (Homo sapiens, UniProt Q96PD7)", "T2 sequence (Q96PD7 whole entry)": "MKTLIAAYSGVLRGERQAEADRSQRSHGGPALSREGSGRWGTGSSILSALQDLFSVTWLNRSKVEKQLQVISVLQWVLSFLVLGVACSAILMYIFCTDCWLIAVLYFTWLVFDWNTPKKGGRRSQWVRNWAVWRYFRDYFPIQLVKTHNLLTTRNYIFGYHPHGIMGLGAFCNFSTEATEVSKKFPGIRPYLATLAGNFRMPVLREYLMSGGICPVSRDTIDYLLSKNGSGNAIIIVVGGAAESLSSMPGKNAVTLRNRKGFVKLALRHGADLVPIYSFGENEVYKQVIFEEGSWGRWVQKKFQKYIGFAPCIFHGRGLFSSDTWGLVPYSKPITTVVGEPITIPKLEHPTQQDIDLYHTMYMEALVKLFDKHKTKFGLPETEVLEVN", "experiment": "Inhibition of recombinant FLAG-tagged human DGAT2 expressed in SF9 cells after 1 hr by TopCount assay"}, "[3]": {"experiment": "Half life in rat", "assay_type": "ADME", "settings": "in vivo"}, "[4]": {"experiment": "Oral bioavailability in rat", "assay_type": "ADME, organism-based", "settings": "in vivo"}},
  "note": "pIC50: −log10 of the molar value.",
  "data": [
    {"compound": "Cc1nc(C)c(-c2ccc(C3CCC(CC(=O)O)CC3)cc2)nc1C(N)=O", "note": "(centres undefined) [AZD-7687]", "values": [
      {"measurement": "pIC50", "setting": "[1]", "result": "< 3.52"},
      {"measurement": "pIC50", "setting": "[2]", "result": 7.10}
    ]},
    {"compound": "CC(C)c1onc(-c2c(Cl)cccc2Cl)c1COc1ccc(/C=C/c2cccc(C(=O)O)c2)c(Cl)c1", "values": [
      {"measurement": "half-life", "setting": "[3]", "result": 3.5, "unit": "h"},
      {"measurement": "bioavailability", "setting": "[4]", "result": 10, "unit": "%"}
    ]}
  ]
}
